Experimental data from patent US9388136B2, “Tert-butyl N-[2-{4-[6-amino-5-(2,4-difluorobenzoyl)-2-oxopyridin-1(2H)-yl]-3,5-difluorophenyl}ethyl]-L-alaninate or a salt, hydrate or solvate thereof” (Chroma Therapeutics Ltd., priority 2012, dated 2016).
Where two headings read alike, the source gives them in different places.

Tests used:
[1] = test system: human whole blood; assay: LPS-stimulation of human whole blood, TNF-α levels by ELISA; format: cell-based; conditions: LPS 100 ng/ml, 6 hrs, read-out: D—ester TNF-alpha inhibition (human whole blood), IC50
Protocol: Whole blood was taken by venous puncture using heparinised vacutainers (Becton Dickinson) and diluted in an equal volume of RPMI1640 tissue culture media (Sigma). 100 μl was plated in V-bottomed 96 well tissue culture treated plates. 2 hrs after the addition of the inhibitor in 100 μl of RPMI1640 media, the blood was stimulated with LPS (E coli strain 005:B5, Sigma) at a final concentration of 100 ng/ml and incubated at 37° C. in 5% CO2 for 6 hrs. TNF-α levels were measured from cell-free supernatants by sandwich ELISA (R&D Systems #QTA00B).

[2] = target: p38 MAP Kinase a (Homo sapiens (Human), UniProt Q16539); assay: p38 MAP kinase enzyme assay (radiometric filter-binding); format: biochemical
Protocol: The ability of compounds to inhibit p38 MAP a Kinase activity was measured in an assay performed by Upstate (Dundee UK). In a final reaction volume of 25 μL, p38 MAP Kinase a (5-10 mU) is incubated with 25 mM Tris pH 7.5, 0.002 mMEGTA, 0.33 mg/mL myelin basic protein, 10 mM MgAcetate and [g-33p-ATP] (specific activity approx. 500 cpm/pmol, concentration as required). The reaction is initiated by the addition of the MgATP mix. After incubation for 40 minutes at room temperature, the reaction is stopped by the addition of 5 μL of a 3% phosphoric acid solution. 10 μL of the reaction is then spotted onto a P30 filtermat and washed three times for 5 minutes in 75 mM phosphoric acid and once in methanol prior to drying and scintillation counting.
Duplicate data points are generated from a 1/3 log dilution series of a stock solution in DMSO. Nine dilutions steps are made from a top concentration of 10 μM, and a ‘no compound’ blank is included. The standard radiometric filter-binding assay is performed at an ATP concentration at, or close to, the Km. Data from scintillation counts are collected and subjected to free-fit analysis by Prism software.

[3] = test system: THP-1 cells; assay: LPS-stimulation of THP-1 cells, TNF-α levels by ELISA; format: cell-based; conditions: LPS 1 μg/ml, 6 hrs, read-out: C—ester TNF-alpha inhibition (THP-1 cells), IC50
Protocol: THP-1 cells were plated in 100 μl at a density of 4×10^4 cells/well in V-bottomed 96 well tissue culture treated plates and incubated at 37° C. in 5% CO2 for 16 hrs. 2 hrs after the addition of the inhibitor in 100 μl of tissue culture media, the cells were stimulated with LPS (E coli strain 005:B5, Sigma) at a final concentration of 1 μg/ml and incubated at 37° C. in 5% CO2 for 6 hrs. TNF-α levels were measured from cell-free supernatants by sandwich ELISA (R&D Systems #QTA00B).

[4] = Plasma exposure in mice; format: in vivo; conditions: mouse, po 10 mg/kg, male CD1 mice
Protocol: The compounds were formulated in 8% DMSO, 92% 11.25% hydroxypropyl-β-cyclodextrin in water using the following procedure: the compounds were fully dissolved in 100% DMSO and then the hydroxypropyl-β-cyclodextrin solution added. The fine precipitate formed was re-dissolved by the addition of aqueous HCl and the pH adjusted to 4 with aqueous sodium hydroxide.
Each compound was administered orally at 10 mg/kg, in a total dose volume of 5 ml/kg, to male CD1 mice ([…]). Three mice were used for each time point. Blood samples were taken at the following time points: 5, 15, 30, 60, 120, 240 and 360 minutes, by terminal cardiac puncture, under halothane/isofluorane anaesthesia. Blood samples were collected into pre-chilled tubes containing NaF/EDTA and mixed. Samples were spun at 7-7.5×g for 2 minutes. The plasma was aspirated and frozen.
Plasma samples were prepared by precipitation of protein using three volumes of acetonitrile containing the internal standard. The supernatants were analysed by LCMS (Sciex API 3000, HP1100 binary pump, CTC PAL). The chromatography was based on an Acentis C8 (50×2.1 mm) column and a mobile phase of 5-95% acetonitrile in water/0.1% formic acid.
Exposure (AUC) was calculated from the plasma concentration versus time profile using PK Solutions 2.0 (Summit Research Services, Montrose, Colo.).

[5] = corresponding acid (hydrolysis product of the named ester) tested, read-out: B—acid enzyme assay (p38 kinase A (invitrogen)), IC50
[6] = ester tested, read-out: A—ester enzyme assay (p38 kinase A (invitrogen)), IC50

Chain of p38 MAP Kinase a (Q16539 whole entry): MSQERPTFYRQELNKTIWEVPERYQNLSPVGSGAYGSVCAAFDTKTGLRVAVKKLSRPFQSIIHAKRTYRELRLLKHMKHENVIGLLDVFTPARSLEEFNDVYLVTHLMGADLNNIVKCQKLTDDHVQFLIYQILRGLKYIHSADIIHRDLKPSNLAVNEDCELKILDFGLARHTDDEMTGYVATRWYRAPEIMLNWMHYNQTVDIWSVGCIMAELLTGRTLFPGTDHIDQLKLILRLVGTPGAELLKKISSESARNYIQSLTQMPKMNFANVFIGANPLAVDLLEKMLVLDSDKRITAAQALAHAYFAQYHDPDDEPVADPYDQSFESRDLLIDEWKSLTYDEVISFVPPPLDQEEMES

Structure (SMILES)	IC50 ([1]; Homo sapiens) [nM]	IC50 [2, 5] [nM]	IC50 [2, 6] [nM]	IC50 ([3]; Homo sapiens, THP-1) [nM]	AUC(0-t) [4] [ng·h/mL]	IC50 [1] [nM]	IC50 [3] [nM]
CC(C)C[C@H](NCCCCCOc1cc(F)c(-n2c(N)c(C(=O)c3ccc(F)cc3F)ccc2=O)c(F)c1)C(=O)OC(C)(C)C [tert-Butyl N-(5-{4-[6-amino-5-(2,4-difluoro-benzoyl)-2-oxopyridin-1(2H)-yl]-3,5-difluorophenoxy}pentyl)-L-leucinate]	1250	2	73	29			
CC(C)[C@H](NCCc1cc(F)c(-n2c(N)c(C(=O)c3ccc(F)cc3F)ccc2=O)c(F)c1)C(=O)OC1CCCC1 [Cyclopentyl N-[2-(4-{6-amino-5-[(2,4-difluoro-phenyl)carbonyl]-2-oxopyridin-1(2H)-yl}-3,5 difluorophenyl)ethyl]-L-valinate]	5180		22	8.4			
CC(C)C[C@H](NCCc1cc(F)c(-n2c(N)c(C(=O)c3ccc(F)cc3F)ccc2=O)c(F)c1)C(=O)OC1CCCC1 [cyclopentyl N-(2-{4-[6-amino-5-(2,4-difluoro-benzoyl)-2-oxopyridin-1(2H)-yl]-3,5-difluoro-phenyl}ethyl)-L-leucinate]	54	1	231	0.5	14		
C[C@H](NCCc1cc(F)c(-n2c(N)c(C(=O)c3ccc(F)cc3F)ccc2=O)c(F)c1)C(=O)OC(C)(C)C [tert-Butyl N-(2-{4-[6-amino-5-(2,4-difluorobenzoyl)-2-oxopyridin-1(2H)-yl]-3,5-difluorophenyl}ethyl)-L-alaninate]	26	1	12	1.6	102		
CC(C)C[C@H](NCCCCCOc1cc(F)c(-n2c(N)c(C(=O)c3ccc(F)cc3F)ccc2=O)c(F)c1)C(=O)OC1CCCC1 [Cyclopentyl N-(5-{4-[6-amino-5-(2,4-difluorobenzoyl)-2-oxopyridin-1(2H)-yl]-3,5 - difluorophenoxy}pentyl)-L-leucinate]	179	2	81	4.2			
Nc1c(C(=O)c2ccc(F)cc2F)ccc(=O)n1-c1c(F)cc(CCN[C@@H](C(=O)OC2CCCC2)c2ccccc2)cc1F [Cyclopentyl (2R)-[(2-{4-[6-amino-5-(2,4-difluoro-benzoyl)-2-oxopyridin-1(2H)-yl]-3,5-difluorophenyl}ethyl)amino] (phenyl)acetate]			47			4110	21
CC(C)C[C@H](NCCc1ccc(-n2c(N)c(C(=O)c3ccc(F)cc3)ccc2=O)cc1)C(=O)OC(C)(C)C [tert-Butyl N-[2-(4-{6-amino-5-[(4-fluoro-phenyl)carbonyl]-2-oxopyridin-1(2H)-yl}phenyl)ethyl]-L-leucinate]	947	118	724	19			
CC(C)C[C@H](NCCc1cc(F)c(-n2c(N)c(C(=O)c3ccc(F)cc3F)ccc2=O)c(F)c1)C(=O)OC(C)(C)C [tert-butyl N-(2-{4-[6-amino-5-(2,4-difluoro-benzoyl)-2-oxopyridin-1(2H)-yl]-3,5-difluorophenyl}ethyl)-L-leucinate]	191	1	120	3	75		
CC(C)C[C@H](NCCc1cc(F)c(-n2c(N)c(C(=O)c3ccc(F)cc3)ccc2=O)c(F)c1)C(=O)OC1CCCC1 [Cyclopentyl N-(2-{4-[6-amino-5-(4-fluoro-benzoyl)-2-oxopyridin-1(2H)-yl]-3,5-difluorophenyl}ethyl)-L-leucinate]	190	1	12	0.9			
C[C@H](NCCc1ccc(-n2c(N)c(C(=O)c3ccc(F)cc3F)ccc2=O)cc1)C(=O)OC(C)(C)C [tert-butyl N-[2-(4-{6-amino-5-[(2,4-difluoro-phenyl)carbonyl]-2-oxopyridin-1(2H)-yl}phenyl)ethyl]-L-alaninate]	195	58	58	2.8			
CC(C)(C)OC[C@H](NCCc1cc(F)c(-n2c(N)c(C(=O)c3ccc(F)cc3F)ccc2=O)c(F)c1)C(=O)OC1CCCC1 [Cyclopentyl N-(2-{4-[6-amino-5-(2,4-difluoro-benzoyl)-2-oxopyridin-1(2H)-yl]-3,5-difluorophenyl}ethyl)-O-tert-butyl-L-serinate]	1300	1	57	5.7			
C[C@@H](O)[C@H](NCCc1ccc(-n2c(N)c(C(=O)c3ccc(F)cc3F)ccc2=O)cc1)C(=O)OC1CCCC1 [Cyclopentyl N-[2-(4-{6-amino-5-[(2,4-difluoro-phenyl)carbonyl]-2-oxopyridin-1(2H)-yl}phenyl)ethyl]-L-threoninate]	1200	56	68	1.8			
CC(C)C[C@H](NCCc1ccc(-n2c(N)c(C(=O)c3ccc(F)cc3F)ccc2=O)cc1)C(=O)OC(C)(C)C [tert-Butyl N-[2-(4-{6-amino-5-[(2,4-difluoro-phenyl)carbonyl]-2-oxopyridin-1(2H)-yl}phenyl)ethyl]-L-leucinate]	638	58	330	2.4			
Nc1c(C(=O)c2ccc(F)cc2F)ccc(=O)n1-c1c(F)cc(CCN[C@H](C(=O)OC2CCCC2)c2ccccc2)cc1F [Cyclopentyl (2S)-[(2-{4-[6-amino-5-(2,4-difluorobenzoyl)-2-oxopyridin-1(2H)-yl]-3,5-difluorophenyl}ethyl)amino] (phenyl)acetate]	148	1	65	0.5			
